Reference: patent US12678413B2, “Compositions containing pterosin compound and derivatives thereof active ingredients for prevention or treatment of degenerative brain diseases” (priority 2017, dated 2026)
Like-named read-outs stand apart in the source and are kept apart here.

Columns and labels:
NIH3T3 cells = experiment: MTT cytotoxicity assay, normal cell line NIH3T3; assay type: cell-based; conditions: NIH3T3 mouse embryo fibroblast, 48 hours incubation
Experimental: (§1) The normal cell line NIH3T3 (mouse embryo fibroblast cell-line) and the cancerous cell line B16F10 (mouse melanoma cell-line) were separately grown in 96-well plates and incubated for 48 hours with predetermined concentrations of each of the compounds. After additional incubation with MTT, absorbance at 550 nm was read using a microplate reader. Absorbance is an index accounting for a number of viable cells and was used to calculate cell proliferation rates according to the following formula. All experiments were conducted three times for reproducibility. Cell proliferation rate (%)=OD550(sample)/OD550(control)
(§2) Then, LD50 (Lethal Dose 50) values were calculated on the basis of changes in the cell proliferation rate.

B16F10 cells = experiment: MTT cytotoxicity assay, cancerous cell line B16F10; assay type: cell-based; conditions: B16F10 mouse melanoma, 48 hours incubation
Experimental: as §1, §2

[1] = biological target: T1, BACE1 (β-secretase, recombinant human enzyme) (Homo sapiens, UniProt P56817); experiment: In vitro BACE1 activity assay (FRET kit); assay type: biochemical; conditions: compounds in 10% DMSO, concentrations up to 125 μM
T1 construct: purchased Pan Vera Co. (Madison, WI, USA)
T1 sequence (P56817 46-501): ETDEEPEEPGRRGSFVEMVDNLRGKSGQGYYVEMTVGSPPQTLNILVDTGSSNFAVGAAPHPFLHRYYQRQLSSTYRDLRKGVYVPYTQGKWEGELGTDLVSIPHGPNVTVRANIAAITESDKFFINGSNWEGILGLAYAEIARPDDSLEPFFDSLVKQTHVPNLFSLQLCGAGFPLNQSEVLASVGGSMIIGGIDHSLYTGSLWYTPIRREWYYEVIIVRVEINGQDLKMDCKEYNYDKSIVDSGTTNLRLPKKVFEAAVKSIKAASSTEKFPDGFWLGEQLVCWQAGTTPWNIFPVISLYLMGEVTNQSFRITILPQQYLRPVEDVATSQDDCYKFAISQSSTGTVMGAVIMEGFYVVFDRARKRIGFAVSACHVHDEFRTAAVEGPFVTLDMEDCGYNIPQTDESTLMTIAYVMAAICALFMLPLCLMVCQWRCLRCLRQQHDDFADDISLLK
Description: BACE1 (beta-secretase) FRET assay kit was purchased from Pan Vera Co. (Madison, WI, USA). All the chemicals and solvents used in column chromatography were of reagent grade and were used as received without further purification.
A BACE1 fluorescence resonance energy transfer (FRET) assay kit (β-secretase, recombinant human enzyme) was purchased from Pan Vera Co. (Madison, WI, USA).
BACE1 is an enzyme promotive of the production of β-amyloid, which destroys neurons. In order to examine the effects on the compounds of Table 1 on the activity of BACE1, IC(inhibition concentrations)50 values were determined by measuring BACE1 activity in vitro according to Experimental Methods.

[2] = biological target: T2, acetylcholinesterase (AChE) (Electrophorus electricus, UniProt O42275); experiment: In vitro cholinesterase activity assay (Ellman), AChE; assay type: biochemical; conditions: for SI: selectivity index (BChE/AChE): ratio of IC50 BChE/AChE
T2 construct: purchased Sigma-Aldrich Co. (St. Louis, MO, USA)
T2 sequence (O42275 24-633): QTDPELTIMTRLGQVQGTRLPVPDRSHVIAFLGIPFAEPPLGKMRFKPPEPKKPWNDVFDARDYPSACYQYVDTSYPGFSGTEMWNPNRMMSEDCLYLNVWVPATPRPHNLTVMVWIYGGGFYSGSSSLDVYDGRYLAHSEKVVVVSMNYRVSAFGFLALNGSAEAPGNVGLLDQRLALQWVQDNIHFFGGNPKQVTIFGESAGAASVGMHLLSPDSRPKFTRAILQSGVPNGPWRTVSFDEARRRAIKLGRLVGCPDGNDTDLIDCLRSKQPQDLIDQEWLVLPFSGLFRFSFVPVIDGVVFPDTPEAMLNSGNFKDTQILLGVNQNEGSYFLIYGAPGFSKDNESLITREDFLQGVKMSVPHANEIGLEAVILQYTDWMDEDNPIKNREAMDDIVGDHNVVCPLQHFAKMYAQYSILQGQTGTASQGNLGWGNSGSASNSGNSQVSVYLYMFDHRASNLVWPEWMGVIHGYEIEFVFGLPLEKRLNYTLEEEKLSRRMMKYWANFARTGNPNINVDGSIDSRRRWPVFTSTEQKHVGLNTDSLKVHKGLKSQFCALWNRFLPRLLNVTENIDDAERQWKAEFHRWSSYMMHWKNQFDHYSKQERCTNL
Experimental: (§3) The reaction started with the addition of 10 μL of DTNB and 10 μL of Ach or Bch.
(§4) Briefly, the basis for this assay is the hydrolysis of acetylthiocholine by acetylcholinesterase, producing thiocholine that reacts with DTNB. […] Degrees of inhibition were calculated according to […] wherein E and S represent enzyme activities in the presence and absence of a test sample, respectively.
(§5) The compounds of Table 1 were evaluated for anti-Alzheimer activity. In this regard, inhibitory activity against AChE (acetylcholinesterase) and BChE (butyrylcholinesterase), which lyse acetylcholine in the central nervous system, was measured according to the Experimental Method to calculate IC(inhibition concentrations)50 values.

[3] = biological target: T3, butyrylcholinesterase (BChE) (Equus caballus, UniProt P81908); experiment: In vitro cholinesterase activity assay (Ellman), BChE; assay type: biochemical; conditions: concentrations up to 125 μM; Mean ± SEM; read-out: IC50 Butyrylcholine esterase Mean ± SEM
T3 construct: horse serum butyrylcholinesterase (BChE, EC3.1.1.8); purchased Sigma-Aldrich Co. (St. Louis, MO, USA); host or cells: horse serum
T3 sequence (P81908 whole entry): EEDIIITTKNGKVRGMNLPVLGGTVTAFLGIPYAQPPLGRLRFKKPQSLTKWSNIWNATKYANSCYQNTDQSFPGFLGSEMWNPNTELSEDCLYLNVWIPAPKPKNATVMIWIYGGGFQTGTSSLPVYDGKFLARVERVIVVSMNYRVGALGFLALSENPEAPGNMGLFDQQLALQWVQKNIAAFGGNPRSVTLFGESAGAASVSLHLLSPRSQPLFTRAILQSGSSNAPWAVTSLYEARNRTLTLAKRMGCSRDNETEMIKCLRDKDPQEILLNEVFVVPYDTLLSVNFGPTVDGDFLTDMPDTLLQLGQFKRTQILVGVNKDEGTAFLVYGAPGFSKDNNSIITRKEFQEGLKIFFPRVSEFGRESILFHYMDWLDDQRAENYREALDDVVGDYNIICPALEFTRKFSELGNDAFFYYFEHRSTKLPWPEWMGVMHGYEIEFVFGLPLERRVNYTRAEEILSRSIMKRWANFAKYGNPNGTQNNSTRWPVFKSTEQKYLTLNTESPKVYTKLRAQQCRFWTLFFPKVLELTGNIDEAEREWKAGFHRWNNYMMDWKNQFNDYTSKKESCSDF
Experimental: as §3, §4, §5

BACE1 = biological target: T4, BACE1 (Homo sapiens, UniProt P56817); experiment: BACE1 enzyme kinetics (Dixon plot and Lineweaver plot); assay type: biochemical
T4 construct: purchased Pan Vera Co. (Madison, WI, USA)
T4 sequence (P56817 46-501): as the sequence (P56817 46-501) above
Experimental: A BACE1 fluorescence resonance energy transfer (FRET) assay kit (β-secretase, recombinant human enzyme) was purchased from Pan Vera Co. (Madison, WI, USA). The assay was carried out according to the manual provided, with a modification made thereto as described by Jung et al. (Jung et al., Biol Pharm Bull, 2010, 33:267-272). Quercetin was used as a positive control.
In addition, an enzyme kinetics experiment was conducted using the Lineweaver plot and Dixon plot (see FIG. 7) in order to examine the BACE1 inhibition mechanism of the novel compound (Compound 2). […] The results of the experiment indicate that the novel compound of the present disclosure is a very potent inhibitor against BACE1.

[4] = biological target: T2, acetylcholinesterase (AChE); experiment: AChE enzyme kinetics (Dixon plot and Lineweaver plot); assay type: biochemical
Experimental: as §3, §4

[5] = biological target: T3, butyrylcholinesterase (BChE); experiment: BChE enzyme kinetics (Dixon plot and Lineweaver plot); assay type: biochemical
Experimental: as §3, §4

Row | Structure (SMILES) | LD50 Normal cell NIH3T3 (NIH3T3 cells) | LD50 Cancer cell B16F10 (B16F10 cells) | IC50 [1] [µM] | SI: selectivity index (BChE/AChE) [2] | IC50 [3] [µM] | Inhibition type BACE1 (BACE1) | Ki (BACE1) [µM] | Inhibition type BACE1 (BACE1; listed as (2R)-Pteroside B) | Inhibition type Acetylcholinesterase [4] | Inhibition type Acetylcholinesterase ([4]; listed as (2R)-Pteroside B) | Inhibition type Butyrylcholinesterase [5] | Inhibition type Butyrylcholinesterase ([5]; listed as (2R)-Pteroside B) | IC50 ([2]; concentrations up to 125 μM, Mean ± SEM, read-out: IC50 Acetylcholine Esterase Mean ± SEM) [µM]
1 | Cc1cc2c(c(C)c1CCO[C@@H]1OC(CO)[C@@H](O)[C@H](O)C1O)C(=O)[C@H](C)C2 (stereo partly drawn) [Compound 14, (2R)-pteroside B] | >5,000 μM | >5,000 μM | 43.4 ± 3 | 6.9 | 17.6 ± 3.1 | noncompetitive type | 72.5 | Noncompetitive | mixed type | Mixed-type | mixed type | Mixed-type | –
2 | Cc1c(CCO[C@@H]2OC(CO)[C@@H](O)[C@H](O)C2O)c(CO)cc2c1C(=O)[C@@H](C)C2 (stereo partly drawn) [Compound 19, (2S)-pteroside P] | >5,000 μM | >5,000 μM | 81.3 ± 3.9 | 0.57 | 33.2 ± 3 | – | – | – | – | – | – | – | 57.5 ± 3.2
